Test results from the supplement of paper PMC10307832.

Assays:
Assay in all cases: relative viability (nuclei count vs DMSO), 5 days (fraction); higher = more cells survive
[1] = compound: CCOC1=CC=CC=C1N=NC2=C(NN(C2=O)C3=NC(=CS3)C4=CC=CC=C4)C [BAM7] + COc1cccc2cc(-c3nc([C@H]4CC[C@H](C(=O)O)CC4)n4ncnc(N)c34)[nH]c12 [OSI-027] (partner 0.5 µM)
How it was run: (§1)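 The day after seeding in 1536-well plates, lung cancer cell lines were treated by pin tool with a single drug, or with a fixed anchor-drug dose together with five library-drug doses (not always all listed) in √10 steps. After 5 days, a combined fix-and-stain solution (final 0.05% Triton X-100, 1% formaldehyde, 1 ug/ml Hoechst) was added. Nuclei counted on 4× images gave relative viability as treated counts over vehicle counts, reported as the median of duplicate plates.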

[2] = compound: CCOC1=CC=CC=C1N=NC2=C(NN(C2=O)C3=NC(=CS3)C4=CC=CC=C4)C [BAM7] + C[C@]1(O)C[C@@H](c2nc(-c3ccc4ccc(-c5ccccc5)nc4c3)c3c(N)nccn32)C1 [Linsitinib] (partner 1 µM)
How it was run: as §1

[3] = compound: CCOC1=CC=CC=C1N=NC2=C(NN(C2=O)C3=NC(=CS3)C4=CC=CC=C4)C [BAM7] + N=C(N)NC(=N)NCCc1ccccc1 [Phenformin] (partner 250 µM)
How it was run: as §1

[4] = compound: CCn1c(-c2nonc2N)nc2c(C#CC(C)(C)O)ncc(OC[C@H]3CCCNC3)c21 + CCNC(=O)c1noc(-c2cc(C(C)C)c(O)cc2O)c1-c1ccc(CN2CCOCC2)cc1 [Luminespib] (partner 0.01 µM)
How it was run: as §1

Cell Line	relative viability ([1]; first compound 0.5 µM)	relative viability ([1]; first compound 5 µM)	relative viability ([1]; first compound 15.81 µM)	relative viability ([1]; first compound 50 µM)	relative viability ([2]; first compound 0.5 µM)	relative viability ([2]; first compound 5 µM)	relative viability ([2]; first compound 15.81 µM)	relative viability ([2]; first compound 50 µM)	relative viability ([3]; first compound 0.5 µM)	relative viability ([3]; first compound 5 µM)	relative viability ([3]; first compound 15.81 µM)	relative viability ([3]; first compound 50 µM)	relative viability ([4]; first compound 0.1 µM)	relative viability ([4]; first compound 0.3162 µM)	relative viability ([4]; first compound 1 µM)	relative viability ([4]; first compound 0.01 µM)	relative viability ([4]; first compound 0.03162 µM)
HCC-44	0.534	0.61	0.476	0.505	0.717	0.67	0.62	0.689	0.351	0.252	0.172	0.273	0.994	0.906	1.21		
HCC-827	0.798	0.794	0.775	0.822	0.957	0.912	0.905	0.881	0.397	0.373	0.453	0.362	0.729	0.476	0.633	0.533	0.895
NCI-H1623	0.422	0.383	0.368	0.349					0.606	0.561	0.542	0.673	0.486	0.425	0.472	0.443	0.639
NCI-H2347	0.478	0.446		0.4	0.983	1.18	0.971	0.982	0.622	0.31		0.37		0.516	0.31	0.396	0.0975
PC-14	0.872	0.898	0.764	0.926	0.984	1.04	0.953	0.975	0.619	0.558	0.588	0.591	0.158	0.107	0.148	0.173	0.112
NCI-H1651	0.657	0.758	0.7	0.653	1.05	1.09	1.01	1.02	0.306	0.303	0.343	0.354	0.811	0.755	0.953	0.969	0.875
HARA	0.53	0.63	0.468	0.485	1.08	1.14	0.864	1.08	0.425	0.51	0.431	0.428	0.666	0.585	0.603	0.942	0.222
NCI-H1650	0.542	0.512	0.498	0.73					0.473	0.501	0.484	0.472	0.182	0.199	0.206	0.187	0.202
NCI-H1395	0.684	0.67	0.704	0.97	1.02	1.07	1.03	1.2	0.444	0.522	0.446	0.538	0.546	0.596	0.695	0.78	0.705
LU99A	0.256	0.29	0.347	0.322	0.565	0.542	0.491	0.6	0.802	0.819	0.896	0.94	0.239	0.307	0.248	0.254	0.21
NCI-H1355	0.441	0.374	0.385	0.395	0.89	0.823	0.729	0.792	0.462	0.421	0.425	0.458	0.746	0.695	0.693	0.716	0.688
HCC-78	0.39	0.372	0.423	0.384	0.544	0.393	0.376	0.585	0.619	0.583	0.796	0.777					
NCI-H1563	0.729	0.721	0.763	0.791	1.22	1.19	1.13	1.24	0.62	0.685	0.654	0.685	0.5	0.463	0.505	0.466	0.641
HCC-15	0.727	0.696	0.7	0.758	0.914	0.905	0.859	0.853	0.506	0.434	0.496	0.471	0.468	0.345	0.268	0.291	0.26
EKVX	0.648	0.768	0.557	0.662	1.05	1.04	0.729	0.831	0.241	0.235	0.198	0.231	0.867	0.878	0.911	0.788	0.887
NCI-H2087	0.818	0.552	0.441	0.559	0.974	1.27	0.893	0.903	0.464	0.473	0.43	0.49	0.165	0.152	0.163	0.128	0.154
LK-2	0.206	0.205	0.225	0.218	0.675	0.708	0.629	0.59	0.507	0.389	0.466	0.636			0.14	0.168	0.177
NCI-H1437	1.19	0.985	0.883	0.972	1.03	0.959	0.922	0.993	0.263	0.23	0.3	0.275	1.21	1.09	1.17	1.07	1.13
COR-L23	0.772	0.74	0.802	0.858	0.979	0.989	0.852	0.852	0.411	0.5	0.443	0.424	0.696	0.57	0.568	0.669	0.642
ABC-1	0.491	0.504	0.474	0.593	0.883	1.18	0.815	0.758	0.223	0.237	0.247	0.266	1.04	0.403	0.682		0.533
